{"source": "patent US20030073731A1", "about": "“Compositions and methods of the use thereof achiral analogues of CC-1065 and the duocarmycins” (priority 2000, published 2003)", "key": {"[1]": {"system": "EKVX"}, "[2]": {"system": "MCF7/ADR-RES", "assay": "cells", "format": "cell-based, human"}, "[3]": {"system": "SF-539"}, "[4]": {"system": "HOP-92"}, "[5]": {"system": "MDA-MB-435"}, "[6]": {"system": "DU-145", "format": "cell-based, human"}, "[7]": {"system": "PC3 (human prostate cancer cells)", "assay": "cells", "format": "cell-based", "method": "Cells were seeded in 96-well microtiter plates at densities of 1000 cells/well. The optimal seeding density was determined to ensure exponential growth in control wells throughout the experimental period and to obtain a linear relationship between absorbance at 492 nm and cell number when analyzed by the sulforhodamine B (SRB) assay (43). 24 hours after seeding the cells were incubated for 1 hour or continuously for 3 days with the drugs (concentration range 0.01 to 500 pM). The cells were washed once and then incubated in drug free medium for 6 days. At the end of the incubation cell growth was determined by the SRB assay, which quantifies viable cells by measuring their total cellular protein content. […] Similar studies were conducted against the growth of PC3 (human prostate cancer cells) and MCF-7 (human breast cancer cells)."}, "[8]": {"system": "ACHN"}, "[9]": {"system": "SF-268"}, "[10]": {"system": "IGROV1", "assay": "cells", "format": "cell-based, human"}, "[11]": {"system": "A549/ATCC"}, "[12]": {"system": "LOX IMVI"}, "[13]": {"system": "UACC-62"}, "[14]": {"system": "SNB-19"}, "[15]": {"system": "MDA-N"}, "[16]": {"system": "HT29"}, "[17]": {"system": "NCI-H332M"}, "[18]": {"system": "SW-620"}, "[19]": {"system": "SR", "assay": "cells", "format": "cell-based, human"}, "[20]": {"system": "human H522 lung cancer", "method": "For these assays, human tumor cells are cultivated in polyvinylidene fluoride (PVDF) hollow fibers, and a sample of each cell line is implanted into each of two physiologic compartments (intraperitoneal and subcutaneous) in mice. […] Three mice are treated with potential antitumor compounds at each of 2 test doses by the intraperitoneal route using a QD×4 treatment schedule. Vehicle controls consist of 6 mice receiving the compound diluent only. The fiber cultures are collected on the day following the last day of treatment. To assess anticancer effects, viable cell mass is determined for each of the cell lines using a formazan dye (MTT) conversion assay. From this, the %T/C can be calculated using the average optical density of the compound treated samples divided by the average optical density of the vehicle controls. In addition, the net increase in cell mass can be determined for each sample as a sample of fiber cultures are assessed for viable cell mass on the day of implantation into mice. Thus, the cytostatic and cytocidal capacities of the test compound can be assessed.\nThe data are reported as %T/C for each of the 2 compound doses against each of the cell lines with separate values calculated for the intraperitoneal and subcutaneous samples.\nCompounds are selected for further in vivo testing in standard subcutaneous xenograft models on the basis of several hollow fiber assay criteria. […] The intraperitoneal and subcutaneous samples are scored separately so that criteria (1) and (2) can be evaluated. Compounds with a combined IP+SC score≧20, a SC score×8 or a net cell kill of one or more cell lines are referred for xenograft testing. These criteria were statistically validated by comparing the activity outcomes of ≧80 randomly selected compounds in the hollow fiber assay and in the xenograft testing."}, "[21]": {"system": "PC-3", "assay": "cells", "settings": "Homo sapiens"}, "[22]": {"system": "A549/ATCC", "assay": "cells", "settings": "Homo sapiens, A549, read-out: LC50"}, "[23]": {"system": "TK-10", "assay": "cells", "settings": "Homo sapiens"}, "[24]": {"system": "NCI-H23", "assay": "cells", "settings": "Homo sapiens"}, "[25]": {"system": "SK-MEL-5", "assay": "cells", "settings": "Homo sapiens"}, "[26]": {"system": "NCI-H522", "assay": "cells", "settings": "Homo sapiens"}, "[27]": {"system": "SNB-75", "assay": "cells", "settings": "Homo sapiens"}, "[28]": {"system": "HOP-92", "assay": "cells", "settings": "Homo sapiens"}, "[29]": {"system": "KM12", "assay": "cells", "settings": "Homo sapiens"}, "[30]": {"system": "SF-539", "assay": "cells", "settings": "Homo sapiens"}, "[31]": {"system": "786-0", "assay": "cells", "settings": "Homo sapiens"}, "[32]": {"system": "UACC-62", "assay": "cells", "settings": "Homo sapiens"}, "[33]": {"system": "MDA-MB-435", "assay": "cells", "settings": "Homo sapiens"}, "[34]": {"assay": "NCI in-vitro cytotoxicity screen, Breast Cancer panel", "format": "cell-based, human", "settings": "Homo sapiens, read-out: LC50", "method": "(§1) The compounds of this invention were also tested against the panel of 60 human cancer cell lines at the National Cancer Institute, Bethesda, Md. […] The cytotoxicity studies were conducted using a 48 hour exposure, and measuring the optical density of sulforhodamine B-derived color."}, "[35]": {"system": "T-470", "assay": "NCI in-vitro cytotoxicity screen, Breast Cancer panel", "format": "cell-based, human", "settings": "T-470", "method": "as §1"}, "[36]": {"system": "SN12C", "assay": "cells", "settings": "Homo sapiens"}, "[37]": {"system": "M14", "assay": "cells", "settings": "Homo sapiens"}, "[38]": {"system": "NCI-H226", "assay": "cells", "settings": "Homo sapiens"}}, "note": "Where two headings read alike, the source gives them in different places.", "data": [{"compound": "4-(2-Chloroethyl)-3-[5-(5-benzofuran-2-carboxamido)indole-2-carboxamido]phenol [Compound 1]", "values": [{"measurement": "GI50", "setting": "[1]", "result": 1780, "unit": "nM"}, {"measurement": "TGI", "setting": "[1]", "result": "4.41E-06", "unit": "Molar"}, {"measurement": "GI50", "setting": "[2]; MCF7/ADR-RES", "result": 1650, "unit": "nM"}, {"measurement": "TGI", "setting": "[2]; MCF7/ADR-RES", "result": "3.79E-06", "unit": "Molar"}, {"measurement": "Percent Growth", "setting": "[2]; MCF7/ADR-RES, Log10 Concentration (Molar) −4.0", "result": "−55", "unit": "%"}, {"measurement": "Percent Growth", "setting": "[2]; MCF7/ADR-RES, Log10 Concentration (Molar) −7.0", "result": 97, "unit": "%"}, {"measurement": "GI50", "setting": "[3]", "result": 1920, "unit": "nM"}, {"measurement": "TGI", "setting": "[3]", "result": "4.16E-06", "unit": "Molar"}, {"measurement": "GI50", "setting": "[4]", "result": 2620, "unit": "nM"}, {"measurement": "GI50", "setting": "[5]", "result": 1890, "unit": "nM"}, {"measurement": "TGI", "setting": "[5]", "result": "3.75E-06", "unit": "Molar"}, {"measurement": "GI50", "setting": "[6]", "result": 1120, "unit": "nM"}, {"measurement": "TGI", "setting": "[6]", "result": "6.16E-06", "unit": "Molar"}, {"measurement": "IC50", "setting": "[7]; PC3, Continuous exposure", "result": 3000, "unit": "nM"}, {"measurement": "GI50", "setting": "[8]", "result": 1530, "unit": "nM"}, {"measurement": "TGI", "setting": "[8]", "result": "5.55E-06", "unit": "Molar"}, {"measurement": "GI50", "setting": "[9]", "result": 13400, "unit": "nM"}, {"measurement": "TGI", "setting": "[9]", "result": "2.78e-05", "unit": "Molar"}, {"measurement": "GI50", "setting": "[10]", "result": 1500, "unit": "nM"}, {"measurement": "TGI", "setting": "[10]", "result": "3.41E-06", "unit": "Molar"}, {"measurement": "GI50", "setting": "[11]", "result": 1980, "unit": "nM"}, {"measurement": "TGI", "setting": "[11]", "result": "6.58E-06", "unit": "Molar"}, {"measurement": "GI50", "setting": "[12]", "result": 2430, "unit": "nM"}, {"measurement": "TGI", "setting": "[12]", "result": "6.93E-06", "unit": "Molar"}, {"measurement": "GI50", "setting": "[13]", "result": 1970, "unit": "nM"}, {"measurement": "TGI", "setting": "[13]", "result": "3.49E-06", "unit": "Molar"}, {"measurement": "GI50", "setting": "[14]", "result": 3530, "unit": "nM"}, {"measurement": "TGI", "setting": "[14]", "result": "1.38E-05", "unit": "Molar"}, {"measurement": "GI50", "setting": "[15]", "result": 2280, "unit": "nM"}, {"measurement": "TGI", "setting": "[15]", "result": "5.47E-06", "unit": "Molar"}, {"measurement": "GI50", "setting": "[16]", "result": 2290, "unit": "nM"}, {"measurement": "TGI", "setting": "[16]", "result": "1.115E-05", "unit": "Molar"}, {"measurement": "GI50", "setting": "[17]", "result": 2830, "unit": "nM"}, {"measurement": "TGI", "setting": "[17]", "result": "9.60E-06", "unit": "Molar"}, {"measurement": "GI50", "setting": "[18]", "result": 2010, "unit": "nM"}, {"measurement": "TGI", "setting": "[18]", "result": "8.19E-06", "unit": "Molar"}, {"measurement": "GI50", "setting": "[19]", "result": 852, "unit": "nM"}, {"measurement": "TGI", "setting": "[19]", "result": "8.12E-06", "unit": "Molar"}, {"measurement": "IP+SC score", "setting": "[20]", "result": 18}, {"measurement": "cell kill", "setting": "[20]", "result": "significant cells kill was observed"}, {"measurement": "IP score", "setting": "[20]; intraperitoneal fibers", "result": 8}, {"measurement": "SC score", "setting": "[20]; subcutaneous fibers", "result": 10}]}, {"compound": "COC(=O)c1[nH]c2c(O)cc(NC(=O)c3cc4cc(OC)c(OC)c(OC)c4[nH]3)c(CCCl)c2c1C(=O)OC", "note": "[Compound 22, Dimethyl 4-(2-chloroethyl)-7-hydroxy-5-(5,6,7-trimethoxyindole-2-carboxamido)indole-2,3-dicarboxylate]", "values": [{"measurement": "GI50", "setting": "[2]; Homo sapiens, NCI/ADR-RES", "result": 137, "unit": "nM"}, {"measurement": "GI50", "setting": "[21]; PC-3", "result": 61.7, "unit": "nM"}, {"measurement": "CC50", "setting": "[21]; PC-3, read-out: LC50", "result": 10500, "unit": "nM"}, {"measurement": "CC50", "setting": "[22]", "result": "< 50000", "unit": "nM"}, {"measurement": "TGI", "setting": "[4]; HOP-92", "result": "2.57E−07", "unit": "Molar"}, {"measurement": "GI50", "setting": "[23]; TK-10", "result": 272, "unit": "nM"}, {"measurement": "CC50", "setting": "[23]; TK-10, read-out: LC50", "result": "> 50000", "unit": "nM"}, {"measurement": "GI50", "setting": "[24]; NCI-H23", "result": 67.5, "unit": "nM"}, {"measurement": "CC50", "setting": "[24]; NCI-H23, read-out: LC50", "result": "> 50000", "unit": "nM"}, {"measurement": "GI50", "setting": "[25]; SK-MEL-5", "result": 32.3, "unit": "nM"}, {"measurement": "CC50", "setting": "[25]; SK-MEL-5, read-out: LC50", "result": "> 50000", "unit": "nM"}, {"measurement": "IC50", "setting": "[7]; Homo sapiens, PC3, 1 hour exposure", "result": 350, "unit": "nM"}, {"measurement": "IC50", "setting": "[7]; Homo sapiens, PC3, Continuous exposure", "result": 50, "unit": "nM"}, {"measurement": "GI50", "setting": "[10]; Homo sapiens, IGROV-1, IGROV1", "result": 62.1, "unit": "nM"}, {"measurement": "GI50", "setting": "[26]; NCI-H522", "result": 57.7, "unit": "nM"}, {"measurement": "CC50", "setting": "[26]; NCI-H522, read-out: LC50", "result": 373, "unit": "nM"}, {"measurement": "GI50", "setting": "[27]; SNB-75", "result": 62.8, "unit": "nM"}, {"measurement": "CC50", "setting": "[27]; SNB-75, read-out: LC50", "result": 711, "unit": "nM"}, {"measurement": "GI50", "setting": "[28]; HOP-92", "result": 179, "unit": "nM"}, {"measurement": "CC50", "setting": "[28]; HOP-92, read-out: LC50", "result": "> 50000", "unit": "nM"}, {"measurement": "GI50", "setting": "[29]; KM12", "result": 87.4, "unit": "nM"}, {"measurement": "CC50", "setting": "[29]; KM12, read-out: LC50", "result": 474, "unit": "nM"}, {"measurement": "GI50", "setting": "[30]; SF-539", "result": 80.4, "unit": "nM"}, {"measurement": "CC50", "setting": "[30]; SF-539, read-out: LC50", "result": 608, "unit": "nM"}, {"measurement": "GI50", "setting": "[31]; 786-0", "result": 123, "unit": "nM"}, {"measurement": "CC50", "setting": "[31]; 786-0, read-out: LC50", "result": "> 50000", "unit": "nM"}, {"measurement": "GI50", "setting": "[32]; UACC-62", "result": 78.2, "unit": "nM"}, {"measurement": "CC50", "setting": "[32]; UACC-62, read-out: LC50", "result": 436, "unit": "nM"}, {"measurement": "GI50", "setting": "[33]; MDA-MB-435", "result": 137, "unit": "nM"}, {"measurement": "CC50", "setting": "[33]; MDA-MB-435, read-out: LC50", "result": "> 50000", "unit": "nM"}, {"measurement": "CC50", "setting": "[34]", "result": "> 50000", "unit": "nM"}, {"measurement": "GI50", "setting": "[35]; Homo sapiens", "result": 171, "unit": "nM"}, {"measurement": "Percent Growth", "setting": "[35]; Log10 Concentration −4.3", "result": 14, "unit": "%"}, {"measurement": "GI50", "setting": "[19]; Homo sapiens, SR, SB", "result": 5.6, "unit": "nM"}, {"measurement": "GI50", "setting": "[36]", "result": 179, "unit": "nM"}, {"measurement": "CC50", "setting": "[36]; read-out: LC50", "result": "> 50000", "unit": "nM"}, {"measurement": "GI50", "setting": "[37]; M14", "result": 76.4, "unit": "nM"}, {"measurement": "CC50", "setting": "[37]; M14, read-out: LC50", "result": 368, "unit": "nM"}, {"measurement": "GI50", "setting": "[38]; NCI-H226", "result": 74.8, "unit": "nM"}, {"measurement": "CC50", "setting": "[38]; NCI-H226, read-out: LC50", "result": 2550, "unit": "nM"}]}]}
